Laboratory results from US9765092B2, “Tricyclic piperidine compounds” (ACTELION PHARMACEUTICALS LTD, priority 2013, dated 2017).

The compounds below were run against human TPH1 (Homo sapiens (Human), UniProt P17752) (assay: Biochemical in vitro assay using fluorescence readout (TPH1 inhibition)). Details: full length human TPH1, 40 μM L-tryptophan, 15° C., 60 minutes, fluorescence at 540 nm; mean if determined several times.
human TPH1, sequence (P17752 whole entry): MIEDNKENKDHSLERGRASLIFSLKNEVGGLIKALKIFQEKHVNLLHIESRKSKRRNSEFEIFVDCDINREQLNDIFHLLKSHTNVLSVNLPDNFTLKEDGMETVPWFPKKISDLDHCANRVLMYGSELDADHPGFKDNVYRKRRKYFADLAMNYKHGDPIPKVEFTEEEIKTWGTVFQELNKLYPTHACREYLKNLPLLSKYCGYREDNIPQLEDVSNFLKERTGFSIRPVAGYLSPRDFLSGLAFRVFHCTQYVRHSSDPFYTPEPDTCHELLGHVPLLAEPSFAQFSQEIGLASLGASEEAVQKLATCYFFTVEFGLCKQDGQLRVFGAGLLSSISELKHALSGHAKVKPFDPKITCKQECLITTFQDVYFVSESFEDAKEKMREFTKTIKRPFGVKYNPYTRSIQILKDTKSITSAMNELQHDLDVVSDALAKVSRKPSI

| Compound | IC50 [µM] |
| --- | --- |
| Cc1nn2c3c(nc2s1)CCN(C(=O)COc1ccc(N2CCOCC2)nc1Cl)C3c1cnc(N(C)C)s1 (stereo not shown) [Example 1.22.1, 2-((2-Chloro-6-morpholinopyridin-3-yl)oxy)-1-(5-(2-(dimethylamino)-thiazol-5-yl)-2-methyl-7,8-dihydro[1,3,4]thiadiazolo[2′,3′:2,3]imidazo[4,5-c]pyridin-6(5H)-yl)ethanone] | 0.007 |
| Cc1nn2c3c(nc2s1)CCN(C(=O)COc1ccc(N(C)C)nc1Cl)C3c1cnc(N(C)C)s1 (stereo not shown) [Example 1.22.2, 2-((2-Chloro-6-(dimethylamino)pyridin-3-yl)oxy)-1-(5-(2-(dimethylamino)thiazol-5-yl)-2-methyl-7,8-dihydro[1,3,4]thiadiazolo[2′,3′:2,3]imidazo[4,5-c]pyridin-6(5H)-yl)ethanone] | 0.025 |
| Cc1nn2c3c(nc2s1)CCN(C(=O)COc1ccc(C(F)(F)F)nc1Cl)C3c1cnc(N(C)C)s1 (stereo not shown) [Example 1.22.3, 2-((2-Chloro-6-(trifluoromethyl)pyridin-3-yl)oxy)-1-(5-(2-(dimethylamino)thiazol-5-yl)-2-methyl-7,8-dihydro-[1,3,4]thiadiazolo[2′,3′:2,3]imidazo[4,5-c]pyridin-6(5H)-yl)ethanone] | 0.136 |
| Cc1nn2c3c(nc2s1)CCN(C(=O)COc1cc(F)cnc1Cl)C3c1cnc(N(C)C)s1 (stereo not shown) [Example 1.22.4, 2-((2-Chloro-5-fluoropyridin-3-yl)oxy)-1-(5-(2-(dimethylamino)thiazol-5-yl)-2-methyl-7,8-dihydro-[1,3,4]thiadiazolo[2′,3′:2,3]imidazo[4,5-c]pyridin-6(5H)-yl)ethanone] | 0.079 |
| Cc1nn2c3c(nc2s1)CCN(C(=O)COc1ccc(C(F)(F)F)cc1Cl)C3c1cnc(N(C)C)s1 (stereo not shown) [Example 1.22.5, 2-(2-Chloro-4-(trifluoromethyl)phenoxy)-1-(5-(2-(dimethylamino)thiazol-5-yl)-2-methyl-7,8-dihydro-[1,3,4]thiadiazolo[2′,3′:2,3]imidazo[4,5-c]pyridin-6(5H)-yl)ethanone] | 0.13 |
| Cc1nn2c3c(nc2s1)CCN(C(=O)COc1ccc(NS(C)(=O)=O)nc1Cl)C3c1cnc(N(C)C)s1 (stereo not shown) [Example 1.22.6, N-(6-Chloro-5-(2-(5-(2-(dimethylamino)thiazol-5-yl)-2-methyl-7,8-dihydro-[1,3,4]thia-diazolo[2′,3′:2,3]imidazo[4,5-c]pyridin-6(5H)-yl)-2-oxoethoxy)pyridin-2-yl)methane-sulfonamide] | 0.039 |
| Cc1nn2c3c(nc2s1)CCN(C(=O)COc1cccnc1Cl)C3c1cnc(N(C)C)s1 (stereo not shown) [Example 1.22.7, 2-((2-Chloropyridin-3-yl)oxy)-1-(5-(2-(dimethylamino)thiazol-5-yl)-2-methyl-7,8-dihydro[1,3,4]thiadiazolo[2′,3′:2,3]imidazo[4,5-c]pyridin-6(5H)-yl)ethanone] | 0.081 |
| Cc1nn2c3c(nc2s1)CCN(C(=O)COc1ccc(N2CC(F)(F)C2)nc1Cl)C3c1cnc(N(C)C)s1 (stereo not shown) [Example 1.22.8, 2-((2-Chloro-6-(3,3-difluoroazetidin-1-yl)pyridin-3-yl)oxy)-1-(5-(2-(dimethylamino)-thiazol-5-yl)-2-methyl-7,8-dihydro-[1,3,4]thiadiazolo[2′,3′:2,3]imidazo[4,5-c]pyridin-6(5H)-yl)ethanone] | 0.019 |
| Cc1nn2c3c(nc2s1)CCN(C(=O)COc1ccc(C(=O)N(C)C)nc1Cl)C3c1cnc(N(C)C)s1 (stereo not shown) [Example 1.22.9, 6-Chloro-5-(2-(5-(2-(dimethylamino)thiazol-5-yl)-2-methyl-7,8-dihydro-[1,3,4]thia-diazolo[2′,3′:2,3]imidazo[4,5-c]pyridin-6(5H)-yl)-2-oxoethoxy)-N,N-dimethylpicolinamide] | 0.009 |

Same assay, conditions: human TPH1, fluorescence readout

| Compound | IC50 [µM] |
| --- | --- |
| Cc1nn2c3c(nc2s1)CCN(C(=O)COc1ccc(N2CCOCC2)nc1Cl)C3c1nc(C(=O)N(C)C)cs1 (stereo not shown) [Example 1.18.1, 2-(6-(2-((2-chloro-6-morpholinopyridin-3-yl)oxy)acetyl)-2-methyl-5,6,7,8-tetrahydro-[1,3,4]thiadiazolo[2′,3′:2,3]imidazo[4,5-c]pyridin-5-yl)-N,N-dimethylthiazole-4-carboxamide] | 0.014 |
| Cc1nn2c3c(nc2s1)CCN(C(=O)COc1ccc(N2CCOCC2)nc1Cl)C3c1cc(C(C)(C)O)cs1 (stereo not shown) [Example 1.20.1, 2-((2-chloro-6-morpholinopyridin-3-yl)oxy)-1-(5-(4-(2-hydroxypropan-2-yl)thiophen-2-yl)-2-methyl-7,8-dihydro-[1,3,4]thiadiazolo[2′,3′:2,3]imidazo[4,5-c]pyridin-6(5H)-yl)ethanone] | 0.012 |
| COC(=O)c1csc(C2c3c(nc4sc(C)nn34)CCN2C(=O)COc2ccc(N3CCOCC3)nc2Cl)c1 (stereo not shown) [Example 1.21.1, Methyl 5-(6-(2-((2-chloro-6-morpholinopyridin-3-yl)oxy)acetyl)-2-methyl-5,6,7,8-tetrahydro-[1,3,4]thiadiazolo[2′,3′:2,3]imidazo[4,5-c]pyridin-5-yl)thiophene-3-carboxylate] | 0.005 |
| Cc1nn2c3c(nc2s1)CCN(C(=O)COc1ccc(S(N)(=O)=O)cc1C)C3c1sccc1F (stereo not shown) [Example 1.23.2, 4-(2-(5-(3-fluorothiophen-2-yl)-2-methyl-7,8-dihydro-[1,3,4]thiadiazolo[2′,3′:2,3]imidazo[4,5-c]pyridin-6(5H)-yl)-2-oxoethoxy)-3-methylbenzenesulfonamide] | 0.089 |
| Cc1nn2c3c(nc2s1)CCN(C(=O)COc1ccc(C(F)(F)F)nc1Cl)C3c1sccc1F (stereo not shown) [Example 1.23.3, 2-((2-chloro-6-(trifluoromethyl)pyridin-3-yl)oxy)-1-(5-(3-fluorothiophen-2-yl)-2-methyl-7,8-dihydro-[1,3,4]thiadiazolo [2′,3′:2,3]imidazo[4,5-c]pyridin-6(5H)-yl)ethanone] | 0.02 |
| Cc1nn2c3c(nc2s1)CCN(C(=O)COc1ccc(NS(C)(=O)=O)nc1Cl)C3c1sccc1F (stereo not shown) [Example 1.23.4, N-(6-chloro-5-(2-(5-(3-fluorothiophen-2-yl)-2-methyl-7,8-dihydro-[1,3,4]thiadiazolo[2′,3′:2,3]imidazo[4,5-c]pyridin-6(5H)-yl)-2-oxoethoxy)pyridin-2-yl)methanesulfonamide] | 0.007 |
| Cc1nn2c3c(nc2s1)CCN(C(=O)COc1ccc(C(F)(F)F)cc1Cl)C3c1sccc1F (stereo not shown) [Example 1.23.5, 2-(2-chloro-4-(trifluoromethyl)phenoxy)-1-(5-(3-fluorothiophen-2-yl)-2-methyl-7,8-dihydro-[1,3,4]thiadiazolo[2′,3′:2,3]imidazo[4,5-c]pyridin-6(5H)-yl)ethanone] | 0.009 |
| Cc1nn2c3c(nc2s1)CCN(C(=O)COc1ccc(C(=O)N(C)C)nc1Cl)C3c1sccc1F (stereo not shown) [Example 1.23.6, 6-chloro-5-(2-(5-(3-fluorothiophen-2-yl)-2-methyl-7,8-dihydro-[1,3,4]thiadiazolo[2′,3′:2,3]imidazo[4,5-c]pyridin-6(5H)-yl)-2-oxoethoxy)-N,N-dimethylpicolinamide] | 0.005 |
| Cc1nn2c3c(nc2s1)CCN(C(=O)COc1ccc(N2CC(F)(F)C2)nc1Cl)C3c1sccc1F (stereo not shown) [Example 1.23.8, 2-((2-chloro-6-(3,3-difluoroazetidin-1-yl)pyridin-3-yl)oxy)-1-(5-(3-fluorothiophen-2-yl)-2-methyl-7,8-dihydro-[1,3,4]thiadiazolo[2′,3′:2,3]imidazo[4,5-c]pyridin-6(5H)-yl)ethanone] | 0.006 |
| Cc1nn2c3c(nc2s1)CCN(C(=O)COc1ccc(NS(=O)(=O)C2CC2)nc1Cl)C3c1sccc1F (stereo not shown) [Example 1.23.9, N-(6-chloro-5-(2-(5-(3-fluorothiophen-2-yl)-2-methyl-7,8-dihydro-[1,3,4]thiadiazolo[2′,3′:2,3]imidazo[4,5-c]pyridin-6(5H)-yl)-2-oxoethoxy)pyridin-2-yl)cyclopropanesulfonamide] | 0.014 |
| CNC(=O)c1ccc(OCC(=O)N2CCc3nc4sc(C)nn4c3C2c2sccc2F)c(Cl)n1 (stereo not shown) [Example 1.23.10, 6-chloro-5-(2-(5-(3-fluorothiophen-2-yl)-2-methyl-7,8-dihydro-[1,3,4]thiadiazolo[2′,3′:2,3]imidazo[4,5-c]pyridin-6(5H)-yl)-2-oxoethoxy)-N-methylpicolinamide] | 0.009 |
| Cc1nn2c3c(nc2s1)CCN(C(=O)COc1cnc(N(C)C)nc1Cl)C3c1sccc1F (stereo not shown) [Example 1.23.11, 2-((4-chloro-2-(dimethylamino)pyrimidin-5-yl)oxy)-1-(5-(3-fluorothiophen-2-yl)-2-methyl-7,8-dihydro-[1,3,4]thiadiazolo[2′,3′:2,3]imidazo[4,5-c]pyridin-6(5H)-yl)ethanone] | 0.006 |
| CCn1nc(C(=O)OC)cc1OCC(=O)N1CCc2nc3sc(C)nn3c2C1c1sccc1F (stereo not shown) [Example 1.23.12, Methyl 1-ethyl-5-(2-(5-(3-fluorothiophen-2-yl)-2-methyl-7,8-dihydro-[1,3,4]thiadiazolo[2′,3′:2,3]imidazo[4,5-c]pyridin-6(5H)-yl)-2-oxoethoxy)-1H-pyrazole-3-carboxylate] | 0.265 |
| CCn1nc(C(=O)N(C)C)cc1OCC(=O)N1CCc2nc3sc(C)nn3c2C1c1sccc1F (stereo not shown) [Example 1.23.13, 1-ethyl-5-(2-(5-(3-fluorothiophen-2-yl)-2-methyl-7,8-dihydro-[1,3,4]thiadiazolo[2′,3′:2,3]imidazo[4,5-c]pyridin-6(5H)-yl)-2-oxoethoxy)-N,N-dimethyl-1H-pyrazole-3-carboxamide] | 0.103 |
| CCN(CC)C(=O)c1ccc(OCC(=O)N2CCc3nc4sc(C)nn4c3[C@@H]2c2sccc2F)c(Cl)n1 [Example 1.23.14, (R)-6-chloro-N,N-diethyl-5-(2-(5-(3-fluorothiophen-2-yl)-2-methyl-7,8-dihydro-[1,3,4]thiadiazolo[2′,3′:2,3]imidazo[4,5-c]pyridin-6(5H)-yl)-2-oxoethoxy)picolinamide] | 0.019 |
| Cc1nn2c3c(nc2s1)CCN(C(=O)COc1ccc(-c2ncco2)nc1Cl)[C@H]3c1sccc1F [Example 1.23.15, (R)-2-((2-chloro-6-(oxazol-2-yl)pyridin-3-yl)oxy)-1-(5-(3-fluorothiophen-2-yl)-2-methyl-7,8-dihydro-[1,3,4]thiadiazolo[2′,3′:2,3]imidazo[4,5-c]pyridin-6(5H)-yl)ethanone] | 0.02 |
